Measured values reported in patent publication US20080193550A1, “Cla-Enriched Milkfat and Uses Thereof” (FONTERRA CORPORATE RESEARCH AND DEVELOPMENT LIMITED, priority 2004, published 2008).

Legend:
OVA challenged mice [1] = test: Inflammatory cell infiltration into the lung: total and differential BAL cell counts after OVA challenge; assay type: in vivo, C57BL/6 mice; conditions: Example 8, 0.07% (w/w) in diet; for Reduction in numbers of lymphocytes in BAL / Reduction in numbers of monocytes/macrophages in BAL / Reduction of total BAL cell counts / Suppression of accumulation of eosinophils in BAL: compared to control diet
Protocol: Eight to nine week old male and female C57BL/6 mice (University of Auckland, New Zealand) were kept on an ovalbumin (OVA)-free normal mouse chow diet from weaning up until they were assigned to a particular diet (control or experimental diet). Each diet group (n=6) contained an equal number of male and female mice. Throughout the study period mice were kept in an air-conditioned room with controlled humidity, temperature, and a 12 h light:dark cycle.
(§1) Body weights were determined, and blood samples collected via the tail vein, prior to assignment of mice to particular diets. After two weeks on an assigned diet mice were immunized with two intraperitoneal (i.p.) injections of 20 μg of OVA (chicken egg albumin grade V; Sigma Chemical Co., St Louis, Mo.) complexed with 2 mg of Imject Alum (Al(OH)3/Mg(OH)2; Pierce Rockford Ill.) in a total volume of 100 μl of PBS on days 0 and 14. Two weeks after the 2nd injection mice were anaesthetized by i.p. injection of a mixture of ketamine and xylazine (Phoenix, Auckland, New Zealand), and challenged intranasally with 100 μg of OVA in 50 μl of PBS. Undiseased control mice were immunized and challenged with PBS using a similar regime. Body weights were determined, and blood, bronchoalveolar lavage (BAL) fluid, and lung tissue samples were collected 6 days after the intranasal challenge. Blood was collected by cardiac puncture after deeply anaesthetizing mice by i.p. injection of a mixture of ketamine and xylazine. Serum was separated from blood samples, and stored at −80° C.
Bronchoalveolar lavage was performed immediately after euthanasia by flushing 1 ml of PBS containing 1% heat inactivated fetal calf serum (lavage buffer) thrice through the lung and airways of mice via the cannulated trachea. The recovered BAL was pooled for each animal, centrifuged at 1,500 rpm at 4° C., and the supernatant stored at −80° C. The cell pellets were resuspended in 1 ml of lavage buffer, and total cell numbers were counted using a hemocytometer. BAL cells were centrifuged onto poly-L-lysine-coated glass slides using a cytospin, and stained with Diff-Quik stain (Dade Behring Inc. USA). Differential cellular counts were made by counting ≧300 cells under light microscopy (Nikon E200 microscope), using standard morphological criteria.

OVA-specific IgE = OVA-specific IgE in serum by ELISA; assay type: in vivo, C57BL/6 mice; conditions: Table 9; 0.07% (w/w) in diet; OVA challenged mice
Protocol: as §1
(§2) OVA-specific IgG1 in serum samples was measured by standard ELISA employing 96 well microtitre plates (Nunc Maxisorp). Plates were coated with 100 μl of 0.1 M carbonate buffer, pH 9.5, containing 10 μg/ml of OVA (Sigma) overnight at 4° C. After 3 washes with PBS-T (PBS with 0.05% Tween-20) plates were blocked with 200 μl of 3% BSA in PBS, pH 7.2, at room temperature for 90 min. One hundred microlitres of each serum sample (diluted 1:40) was added in triplicate to the wells, and incubated for 2 h at 37° C. Wells were washed four times with PBS-T and 100 μl of goat anti-mouse IgG1-HRP conjugated antibody (Bethyl Laboratories, USA) was added at 1:50,000 dilution. Plates were incubated for 1 h at 37° C., washed 5 times with PBS-T, and 100 μl of peroxidase enzyme substrate o-phenylene diamine (OPD, Sigma Chemical Co, St Louis, Mo.) was added to each well. The colour reaction was stopped after ˜20 min by addition of 50 μl of 4 M H2SO4 to each well. Absorbance was read at 490 nm in a BioRad microplate ELISA reader. Positive and negative sera were used as controls.
OVA-specific IgE was measured as for OVA-specific IgG1 except serum samples were diluted 1:5, and OVA was coated on plates at 100 μg/ml (35). A biotin-conjugated rat anti-mouse IgE monoclonal antibody (diluted 1:200; Pharmingen, San Diego, Calif.) was used to detect OVA-specific IgE antibody, and was detected with avidin-HRP conjugate (diluted 1:250) followed by development with OPD.

OVA-specific IgG1 = OVA-specific IgG1 in serum by ELISA; assay type: in vivo, C57BL/6 mice; conditions: Table 10; 0.07% (w/w) in diet; OVA challenged mice
Protocol: as §1, §2

OVA challenged mice [2] = test: Mucus index score: Schiff staining of airway epithelia; assay type: in vivo, C57BL/6 mice; conditions: 0.07% (w/w) in diet; for Suppression (inhibition) of mucus production: Example 9, compared to control diet, significance not reached; for Mucus Index Score (Mean ± SEM): Table 7, scale 0-4
Protocol: as §1
(§3) Following BAL, the right lobes of lungs were immediately frozen in dry ice and stored at −80° C. for protein and Western blot analysis. The left lobes of lungs were fixed in 4% paraformaldehyde in 0.1 M PBS (pH 7.4) overnight and embedded either in optimum cutting temperature compound (OCT, Tissue Tek) and kept frozen at −80° C. until cryosectioning for immunohistochemistry, or in paraffin for routine histopathological analysis. Some were stained with a combined hematoxylin-Biebrich Scarlet solution by Luna's method for eosinophils to detect eosinophil granules (34) or with Alcian Blue-Periodic Acid Schiff for the detection of acid and neutral mucins and identification of goblet cells.
The level of Schiff staining of airway epithelia was semi-quantitatively determined to give a mucus index score as described (38), but modified in that Schiff staining was scored by microscopic viewing of airways. A minimum of 4 to 6 representative transversely or sagittally sectioned airways were graded per animal using a scale of 0 (no staining), 1 (25% or less of the airway epithelium stained), 2 (26-50% of the airway epithelium stained), 3 (51-75% of the airway epithelium stained), and 4 ([…]). Airways were analysed only when the complete circumference of the airway could be visualized, and those that opened directly into an alveolar space were not included.

OVA challenged mice [3] = test: Histopathology score of lung airway changes; assay type: in vivo, C57BL/6 mice; conditions: 0.07% (w/w) in diet; for Histopathology score (Mean ± SEM): Table 8; for Inhibition of allergen-specific remodelling and inflammation of the lung, in words: Example 10
Protocol: as §1, §3
The histopathology score was determined from inspection of alcian blue-PAS stained paraffin embedded sections of the left lung of each animal. Lung inflammation, perivascular/peribronchiolar infiltrates, airway epithelial hypertrophy, goblet-cell hyperplasia, constriction of bronchioles, mucin hypersecretion, and beneficial presence of phagocytic macrophages were graded on a scale of 0 (no change) to 4 (marked change). Each animal received an overall histopathology score based on summation of individual scores for each criteria. All slides were scored in a blinded fashion (blinded to diet treatment/group assignment), and scores were presented as the mean±SEM of 4-6 animals/group.

liver = conditions: fed to mice at 0.4% w/w for 4 weeks; cited from earlier work

Molecule	Reduction in numbers of lymphocytes in BAL (OVA challenged mice [1])	Reduction in numbers of monocytes/macrophages in BAL (OVA challenged mice [1])	Reduction of total BAL cell counts (OVA challenged mice [1])	Suppression of accumulation of eosinophils in BAL (OVA challenged mice [1])	IgE Values, Average (allergen-specific IgE responses) (OVA-specific IgE)	IgG Values, Average (allergen-specific IgG responses) (OVA-specific IgG1)	Suppression (inhibition) of mucus production (OVA challenged mice [2])	Mucus Index Score (Mean ± SEM) (OVA challenged mice [2])	Histopathology score (Mean ± SEM) (OVA challenged mice [3])	Inhibition of allergen-specific remodelling and inflammation of the lung, in words (OVA challenged mice [3])	Histopathology score (Mean ± SEM) (OVA challenged mice [3]; listed as free fatty acid form of the c-9, t-11 isomer)	Eosinophil count compared to the control diet, in words (OVA challenged mice [1])	Lymphocyte count compared to the control diet, in words (OVA challenged mice [1])	Monocyte/macrophages count compared to the control diet, in words (OVA challenged mice [1])	Total BAL count compared to the control diet, in words (OVA challenged mice [1])	Effect on the liver, in words (liver)
c-9, t-11 CLA [Synthetic c-9, t-11 CLA isomer Triglyceride]	43%	53%	56%	62%	1.17	1.96	15%	2.58 ± 0.94	3.08 ± 0.69	–	–	–	–	–	–	–
CCCCCC/C=C/C=C\CCCCCCCC(=O)O (single isomer, unassigned) [Synthetic c-9, t-11 CLA isomer Free fatty acid, c-9, t-11 CLA]	72%	61%	74%	87%	0.89	1.91	32%	2.04 ± 1.13	2.02 ± 0.66	able to significantly inhibit	2.02	–	–	–	–	–
CCCCC/C=C\C=C\CCCCCCCCC(=O)O (single isomer, unassigned) [Synthetic t-10, c-12 CLA isomer Free Fatty Acid, t-10, c-12 CLA, reference compound]	–	–	–	–	1.25	1.95	7%	2.80 ± 1.35	3.28 ± 0.46	–	–	–	–	–	–	–
t-10, c-12 CLA [t-10, c-12 CLA isomer, reference compound]	–	–	–	–	–	–	–	–	–	not effective	–	no significant difference	no significant difference	no significant difference	no significant difference	dramatic enlargement of the liver with steatosis
t-10, c-12 CLA [Synthetic t-10, c-12 CLA isomer Triglyceride, reference compound]	–	–	–	–	1.29	1.98	15%	2.57 ± 1.16	3.20 ± 0.79	–	–	–	–	–	–	–
